Results reported in BindingDB's records for PubMed 1874734 (Laboratoires Glaxo, 1991).

Biological target: cAMP-dependent protein kinase catalytic subunit alpha (Rattus norvegicus, UniProt P27791)
Test: PKA assay

IC50 | SMILES
2000 nM | CN1CCCC1CCn1cc(C2=C(c3c[nH]c4ccccc34)C(=O)NC2=O)c2ccccc21 (configuration not stated) [3-(1H-indol-3-yl)-4-{1-[2-(1-methylpyrrolidin-2-yl)ethyl]-1H-indol-3-yl}-2,5-dihydro-1H-pyrrole-2,5-dione]
> 10000 nM | CN(C)CCCn1cc(C2=C(c3c[nH]c4ccccc34)CNC2=O)c2ccccc21 [3-[1-(3-dymethylaminopropyl)-indol-3-yl]-4-(indol-3-yl)-3-pyrrolin-2-one]
